{"source": "patent US20230339886A1", "about": "(University of Florida Research Foundation, Incorporated, priority 2020, published 2023)", "data": [{"target": "T1, REV-ERBα LBD (human; residues 281-614 Δ324-422) (Homo sapiens, UniProt P20393, DEL324-422)", "T1 construct": "6×Histag-REV-ERBα LBD (human; residues 281-614 Δ324-422); made in house; host or cells: Escherichia coli", "T1 sequence (P20393 with tags, fused parts or gaps DEL324-422)": "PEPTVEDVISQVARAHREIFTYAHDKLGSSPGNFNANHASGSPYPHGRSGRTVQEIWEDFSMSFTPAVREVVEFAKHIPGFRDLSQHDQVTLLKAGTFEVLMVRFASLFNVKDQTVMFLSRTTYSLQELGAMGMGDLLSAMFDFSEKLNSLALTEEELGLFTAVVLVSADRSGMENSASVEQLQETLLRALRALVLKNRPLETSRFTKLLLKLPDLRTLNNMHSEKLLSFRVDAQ", "T1 sequence (Q9Y618 2335-2356 partner limits assumed)": "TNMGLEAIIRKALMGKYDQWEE", "assay": "TR-FRET corepressor interaction assay (REV-ERBα LBD, FITC-SMRT peptide)", "format": "biochemical", "details": "FITC-SMRT peptide, read-out: REVERBα agonism (EC50 class, FRET assay)", "outline": "(§1)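 Compound serial dilutions (in DMSO, triplicate) incubated 2 h at 4 °C; Tb donor excited at 340 nm, emission read at 495 nm and FITC acceptor at 520 nm. TR-FRET ratio (520/495 nm) plotted against ligand concentration and fitted to a sigmoidal dose-response curve.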", "units": {"EC50": "nM"}, "values": [{"compound": "CC(C)(C)Cn1cc([C@H](NS(=O)(=O)C2CCC2)C(F)F)c2ccc(-c3ccccc3C(F)(F)F)c(F)c21", "note": "[Example 552, (S)—N-(2,2-difluoro-1-(7-fluoro-1-neopentyl-6-(2-(trifluoromethyl)phenyl)-1H-indol-3-yl)ethyl)cyclobutanesulfonamide]", "EC50": "< 500"}, {"compound": "CC(C)(C)Cn1cc([C@H](NS(=O)(=O)C2CCC2)C(F)F)c2ccc(-c3ccc(F)cc3C(F)(F)F)cc21", "note": "[Example 562, (S)—N-(2,2-difluoro-1-(6-(4-fluoro-2-(trifluoromethyl)phenyl)-1-neopentyl-1H-indol-3-yl)ethyl)cyclobutanesulfonamide]", "EC50": "< 500"}, {"compound": "CC(C)(C)Cn1cc([C@H](NS(=O)(=O)C2CCC2)C(F)F)c2ccc(-c3c(C#N)cccc3C(F)(F)F)cc21", "note": "[Example 535, (S)—N-(1-(6-(2-cyano-6-(trifluoromethyl)phenyl)-1-neopentyl-1H-indol-3-yl)-2,2-difluoroethyl)cyclobutanesulfonamide]", "EC50": "< 500"}, {"compound": "CC(C)(C)Cn1cc([C@H](NS(=O)(=O)C2CCC2)C(F)(F)F)c2cc(F)c(-c3ccccc3C(F)(F)F)nc21", "note": "[Example 525, (S)—N-(2,2,2-trifluoro-1-(5-fluoro-1-neopentyl-6-(2-(trifluoromethyl)phenyl)-1H-pyrrolo[2,3-b]pyridin-3-yl)ethyl)cyclobutanesulfonamide]", "EC50": "< 500"}, {"compound": "CC(C)(C)Cn1cc(C(NS(=O)(=O)C2CCC2)C2CC2)c2ccc(-c3ccccc3C(F)(F)F)cc21", "note": "(stereo not drawn) [Example 424, N-(cyclopropyl(1-neopentyl-6-(2-(trifluoromethyl)phenyl)-1H-indol-3-yl)methyl)cyclobutanesulfonamide]", "EC50": "< 500"}, {"compound": "CC(C)(C)Cn1cc([C@H](NS(=O)(=O)C2CCOC2)C(F)(F)F)c2cc(F)c(-c3ccccc3C(F)(F)F)cc21", "note": "(stereo partly drawn) [Example 461, N—((S)-2,2,2-trifluoro-1-(5-fluoro-1-neopentyl-6-(2-(trifluoromethyl)phenyl)-1H-indol-3-yl)ethyl)tetrahydrofuran-3-sulfonamide]", "EC50": "> 3000"}, {"compound": "CC(C)(C)Cn1cc([C@H](NS(=O)(=O)C2CC2)C(F)(F)F)c2ccc(-c3ccc(F)cc3C#N)cc21", "note": "[Example 472, (S)—N-(1-(6-(2-cyano-4-fluorophenyl)-1-neopentyl-1H-indol-3-yl)-2,2,2-trifluoroethyl)cyclopropanesulfonamide]", "EC50": "< 500"}, {"compound": "CC(C)(C)Cn1cc([C@H](NS(=O)(=O)C2CC2)C(F)(F)F)c2cc(F)c(-c3ccccc3C(F)(F)F)nc21", "note": "[Example 524, (S)—N-(2,2,2-trifluoro-1-(5-fluoro-1-neopentyl-6-(2-(trifluoromethyl)phenyl)-1H-pyrrolo[2,3-b]pyridin-3-yl)ethyl)cyclopropanesulfonamide]", "EC50": "< 500"}, {"compound": "CC(C)(C)Cn1cc(CCNS(=O)(=O)C2CC2)c2ccc(-c3cc(C(F)(F)F)ccc3C(F)(F)F)cc21", "note": "[Example 483, N-(2-(6-(2,5-bis(trifluoromethyl)phenyl)-1-neopentyl-1H-indol-3-yl)ethyl)cyclopropanesulfonamide]", "EC50": "< 500"}]}, {"target": "T1, REV-ERBα LBD (human; residues 281-614 Δ324-422)", "assay": "TR-FRET corepressor interaction assay (REV-ERBα LBD, FITC-SMRT peptide)", "format": "biochemical", "details": "Table 2, read-out: REVERBα agonism (EC50 class, FRET assay)", "outline": "as §1", "units": {"EC50": "nM"}, "values": [{"compound": "CN(C)S(=O)(=O)NCCc1cn(Cc2cccc(I)c2)c2cc(-c3ccncc3)ccc12", "note": "[Example 145, N-{2-[6-(pyridin-4-yl)-1-(3-iodobenzyl)-1H-indol-3-yl]ethyl}-N,N-dimethylsulfuric diamide]", "EC50": "> 3000"}, {"compound": "CN(C)S(=O)(=O)NCCc1cn(C2CC2)c2cc(-c3ccncc3)ccc12", "note": "[Example 134, N′-{2-[6-(pyridin-4-yl)-1-cyclopropyl-1H-indol-3-yl]ethyl}-N,N-dimethylsulfuric diamide]", "EC50": "> 3000"}, {"compound": "CC(C)(C)Cn1cc([C@H](NS(=O)(=O)C2CC2)C(F)(F)F)c2ccc(-c3c(C#N)cccc3C(F)(F)F)cc21", "note": "[Example 389, (S)—N-(1-(6-(2-cyano-6-(trifluoromethyl)phenyl)-1-neopentyl-1H-indol-3-yl)-2,2,2-trifluoroethyl)cyclopropanesulfonamide]", "EC50": "< 500"}, {"compound": "CC(C)(C)Cn1cc(CCNS(=O)(=O)C2CC2)c2cc(F)c(-c3ccccc3C(F)(F)F)cc21", "note": "[Compound 287]", "EC50": "< 500"}, {"compound": "CC(C)(C)Cn1cc([C@H](NS(=O)(=O)C2CC2)C(F)(F)F)c2ccc(Br)cc21", "note": "[Example 343, (S)—N-(1-(6-bromo-1-neopentyl-1H-indol-3-yl)-2,2,2-trifluoroethyl)cyclopropanesulfonamide]", "EC50": "< 500"}, {"compound": "Cc1c(Br)ccc2c([C@H](NS(=O)(=O)C3CC3)C(F)(F)F)cn(CC(C)(C)C)c12", "note": "[Example 368, (S)—N-(1-(6-bromo-7-methyl-1-neopentyl-1H-indol-3-yl)-2,2,2-trifluoroethyl)cyclopropanesulfonamide]", "EC50": "500 to 3000"}, {"compound": "CC(C)Cn1cc(CCN(C)S(=O)(=O)N(C)C)c2ccc(C(F)(F)F)cc21", "note": "[Example 121, dimethyl[methyl({2-[1-(2-methylpropyl)-6-(trifluoromethyl)-1H-indol-3-yl]ethyl})sulfamoyl]amine]", "EC50": "500 to 3000"}, {"compound": "CC(C)S(=O)(=O)NCCn1cc(CC(C)(C)C)c2cc(-c3ccc(C(F)(F)F)cc3C(F)(F)F)ccc21", "note": "[Example 417, N-(2-(5-(2,4-bis(trifluoromethyl)phenyl)-3-neopentyl-1H-indol-1-yl)ethyl)propane-2-sulfonamide]", "EC50": "< 500"}, {"compound": "CC(C)Cn1cc(-c2ccc(CNS(=O)(=O)C(C)C)cc2)c2ccc(-c3ccccc3)cc21", "note": "[Example 87, N-(4-(1-isobutyl-6-phenyl-1H-indol-3-yl)benzyl)propane-2-sulfonamide]", "EC50": "500 to 3000"}, {"compound": "CC(=O)N1CCC(c2ccc3c(CCNS(=O)(=O)N(C)C)cn(CC(C)C)c3c2)CC1", "note": "[Compound 103, 1-[4-(3-{2-[(dimethylsulfamoyl)amino]ethyl}-1-(2-methylpropyl)-1H-indol-6-yl)piperidin-1-yl]ethan-1-one]", "EC50": "> 3000"}, {"compound": "CC(C)(C)Cn1cc([C@H](NS(=O)(=O)C2CC2)C(F)(F)F)c2ccc(-c3cccc(F)c3C#N)cc21", "note": "[Example 386, (S)—N-(1-(6-(2-cyano-3-fluorophenyl)-1-neopentyl-1H-indol-3-yl)-2,2,2-trifluoroethyl)cyclopropanesulfonamide]", "EC50": "500 to 3000"}, {"compound": "CN(C)S(=O)(=O)NCCc1cn(Cc2ccccn2)c2cc(Br)ccc12", "note": "[Example 161, [(2-{6-bromo-1-[(pyridin-2-yl)methyl]-1H-indol-3-yl}ethyl)sulfamoyl]dimethylamine]", "EC50": "500 to 3000"}, {"compound": "CC(C)S(=O)(=O)NCCc1cn(CC(C(F)(F)F)C(F)(F)F)c2cc(-c3ccncc3)ccc12", "note": "[Compound 271]", "EC50": "500 to 3000"}, {"compound": "CC(C)Cn1cc(CCS(=O)(=O)C(C)C)c2ccc(Br)cc21", "note": "[Compound 247]", "EC50": "500 to 3000"}, {"compound": "CC(C)Cn1cc([C@H](NS(=O)(=O)C2CC2)C(F)(F)F)c2ccc(-c3ccccc3C(F)(F)F)cc21", "note": "[Example 410, (S)—N-(2,2,2-trifluoro-1-(1-isobutyl-6-(2-(trifluoromethyl)phenyl)-1H-indol-3-yl)ethyl)cyclopropanesulfonamide]", "EC50": "< 500"}, {"compound": "CC(C)(C)Cc1cn(CCNS(=O)(=O)C2CC2)c2ccc(-c3ccc(F)c(F)c3)cc12", "note": "[Compound 226]", "EC50": "500 to 3000"}, {"compound": "CCCn1cc(CCNS(=O)(=O)N(C)C)c2ccc(-c3ccncc3)cc21", "note": "[Compound 6]", "EC50": "< 500"}, {"compound": "CC(C)(C)Cc1cn(CCNS(=O)(=O)C2CC2)c2ccc(-c3ccccc3)cc12", "note": "[Example 225, N-(2-(3-neopentyl-5-phenyl-1H-indol-1-yl)ethyl)cyclopropanesulfonamide]", "EC50": "500 to 3000"}]}]}
